# Reference: publication PMC11742250, “Study on the absorption characteristics of euscaphic acid and tiliroside in fruits of Rosa laxa Retz” (PeerJ, 2025)
# Columns and labels:
# Type in all cases: in vitro ADME, human
# [1] = system: P-gp; assay: in vitro; conditions: human
# Protocol: (§1) A precise amount of FRLE reserve solution is diluted to concentrations of 50, 100, and 150 μg/mL, representing the low, medium, and high concentrations of FRLE. Additionally, solutions are prepared containing 0.100 μmoL/mL Verapamil (Ver), 0.099 μmoL/mL Cyclosporine A (CsA), and 0.025 μmoL/mL EGTA at low, medium, and high concentrations for bidirectional transport.
# (§2) Caco-2 cells are seeded at a density of 2.5 × 10^5 cells/mL, with 0.5 mL inoculated into each well of a Transwell® 12-well plate. After continuous culturing for 18 days, the cell model is established. Bidirectional transport experiments include AP→BL ([…], absorption transport) and BL→AP ([…], secretion transport).
# (§3) Taking absorption transport as an example: 0.5 mL of drug-containing Hank’s Balanced Salt Solution (HBSS) solution is added to the apical (AP) side (supply side), while 1.5 mL of blank solution is added to the basolateral (BL) side (receiving side). At time points 15, 30, 60, 90, 120, 150, and 180 min, 200 µL is drawn from the BL side and simultaneously supplemented with 200 µL of HBSS buffer. The samples are then evaporated in a water bath, re-dissolved in methanol, and centrifuged at 12,000 rpm for 10 min. The supernatant is taken and assayed under the conditions described in “Establishment of the determination method for euscaphic acid and tiliroside”. The effects of different times, concentrations, inhibitors, chelating agents, and pH values on the absorption characteristics of euscaphic acid and tiliroside in FRLE are investigated. The secretion transport procedure is identical to the absorption transport ([Artursson & Karlsson, 1991]).
# (§4) The side with the added blank solution is considered the receiving side, and the amount of drug in the receiving side is regarded as its absorption amount (Qr). In the A→B transport test, the amount of drug absorbed by the B-side chamber at any time point is denoted as (QrBi). In the B→A transport test, the amount of drug absorbed by the A-side chamber at any time point is (QrAi). The specific calculations are provided in the following formulas:
# (§5) A-B transport: QrBi = 0.2 × (Cr1 + Cr2 + Λ + Cr(i-1)) + 1.5 × Cri
# (§6) B-A transport: Qrdi = 0.2 × (Cr1 + Cr2 + Λ + Cr(i-1)) + 0.5 × Cdi
# (§7) In the formula, 1.5 represents the volume of the test solution added to the B-side chamber (mL), 0.5 represents the volume of the test solution added to the A-side chamber (mL), and 0.2 is the volume of each sample taken (mL). Cri is the actual concentration in the receiving chamber at the i-th time point (μg/mL). The apparent permeability coefficient Papp (cm/s) is calculated using the following formula ([Lu et al., 2020]):
# (§8) Papp=dQ/dt×1/A×C0 dQ/dt represents the amount of drug transported per unit of time (μg/s); A is the surface area of the 12-well Transwell® membrane (1.12 cm^2), and C0 is the initial concentration of the drug in the donor side ([…]) ([Qu et al., 2021]).
# (§9) Exhaust ratio (RB-A/A-B)) is calculated using the following formula: RB−A/A−B=Papp(B−A)/Papp(A−B)
# [2] = in vitro; conditions: human
# Protocol: as §1, §2, §3, §4, §5, §6, §7, §8, §9
# [3] = system: Caco-2 cells; assay: in vitro
# Protocol: as §1, §2, §3, §4, §5, §6, §7, §8, §9
# [4] = system: Caco-2 cells; assay: Evaluation of the Caco-2 cell model with fluorescein sodium as marker (Papp, monolayer integrity); conditions: Caco-2 monolayer, four repeated measurements
# Protocol: The evaluation of the Caco-2 cell model primarily involves using fluorescein sodium as a marker. The cells are seeded in a 12-well cell plate (10^5 cells/well) and observed and photographed every two days under a fluorescence inverted microscope. The transepithelial electrical resistance (TEER) is measured using a resistance meter (Millipore Millicell ERS-2; Millipore Sigma, Darmstadt, Germany). […] Markers used for detection mainly include mannitol, inulin, and fluorescein sodium.
# [5] = Caco-2, Papp × 10^−4 (cm/s) (A→B)
# [6] = Caco-2, Papp × 10^−4 (cm/s) (B→A)
# [7] = Caco-2, pH 5, Papp × 10^−4 (cm/s) (A→B)
# [8] = Caco-2, pH 5, Papp × 10^−4 (cm/s) (B→A)
# [9] = Caco-2, pH 6, Papp × 10^−4 (cm/s) (A→B)
# [10] = Caco-2, pH 6, Papp × 10^−4 (cm/s) (B→A)
# [11] = Caco-2, pH 8, Papp × 10^−4 (cm/s) (A→B)
# [12] = Caco-2, pH 8, Papp × 10^−4 (cm/s) (B→A)
# [13] = Caco-2, pH 9, Papp × 10^−4 (cm/s) (A→B)
# [14] = Caco-2, pH 9, Papp × 10^−4 (cm/s) (B→A)
smiles,measurement,setting,value
O=C(/C=C/c1ccc(O)cc1)OC[C@H]1O[C@@H](Oc2c(-c3ccc(O)cc3)oc3cc(O)cc(O)c3c2=O)[C@H](O)[C@@H](O)[C@@H]1O [Tiliroside],"Papp A→B at 180 min, 50 μg/mL",[1]; [5],142 ± 2 ×10⁻⁶ cm/s
same,"Papp A→B at 180 min, 100 μg/mL",[1]; [5],180 ± 5 ×10⁻⁶ cm/s
same,"Papp A→B at 180 min, 150 μg/mL",[1]; [5],261 ± 6 ×10⁻⁶ cm/s
same,"Papp B→A at 180 min, 50 μg/mL",[1]; [6],156 ± 3 ×10⁻⁶ cm/s
same,"Papp B→A at 180 min, 100 μg/mL",[1]; [6],226 ± 9 ×10⁻⁶ cm/s
same,"Papp B→A at 180 min, 150 μg/mL",[1]; [6],276 ± 1 ×10⁻⁶ cm/s
same,"efflux ratio at 180 min, 50 μg/mL","[1]; Caco-2, RB→A/A→B",1.09 ± 0.03
same,"efflux ratio at 180 min, 100 μg/mL","[1]; Caco-2, RB→A/A→B",1.25 ± 0.06
same,"efflux ratio at 180 min, 150 μg/mL","[1]; Caco-2, RB→A/A→B",0.96 ± 0.02
same,Papp at 180 min,[2]; Caco-2,0.042 to 0.808 ×10⁻⁶ cm/s
same,"Papp A→B at 180 min, 50 μg/mL",[2]; [5],137 ± 2 ×10⁻⁶ cm/s
same,"Papp A→B at 180 min, 100 μg/mL",[2]; [5],176 ± 13 ×10⁻⁶ cm/s
same,"Papp A→B at 180 min, 150 μg/mL",[2]; [5],268 ± 9 ×10⁻⁶ cm/s
same,"Papp B→A at 180 min, 50 μg/mL",[2]; [6],129 ± 2 ×10⁻⁶ cm/s
same,"Papp B→A at 180 min, 100 μg/mL",[2]; [6],210 ± 4 ×10⁻⁶ cm/s
same,"Papp B→A at 180 min, 150 μg/mL",[2]; [6],283 ± 3 ×10⁻⁶ cm/s
same,"efflux ratio at 180 min, 50 μg/mL","[2]; Caco-2, RB→A/A→B",0.82 ± 0.04
same,"efflux ratio at 180 min, 100 μg/mL","[2]; Caco-2, RB→A/A→B",0.75 ± 0.07
same,efflux ratio at 180 min,"[2]; Caco-2, efflux ratio (RB→A/A→B)",< 1.5
same,"Papp A→B at 180 min, 50 μg/mL",[2]; [7],380 ± 9 ×10⁻⁶ cm/s
same,"Papp A→B at 180 min, 100 μg/mL",[2]; [7],409 ± 7 ×10⁻⁶ cm/s
same,"Papp A→B at 180 min, 150 μg/mL",[2]; [7],649 ± 8 ×10⁻⁶ cm/s
same,"Papp B→A at 180 min, 50 μg/mL",[2]; [8],448 ± 8 ×10⁻⁶ cm/s
same,"Papp B→A at 180 min, 100 μg/mL",[2]; [8],536 ± 14 ×10⁻⁶ cm/s
same,"Papp B→A at 180 min, 150 μg/mL",[2]; [8],718 ± 24 ×10⁻⁶ cm/s
same,"efflux ratio at 180 min, 50 μg/mL","[2]; Caco-2, pH 5, RB→A/A→B",1.18 ± 0.01
same,"efflux ratio at 180 min, 100 μg/mL","[2]; Caco-2, pH 5, RB→A/A→B",1.31 ± 0.02
same,"efflux ratio at 180 min, 150 μg/mL","[2]; Caco-2, pH 5, RB→A/A→B",1.11 ± 0.05
same,"Papp A→B at 180 min, 50 μg/mL",[2]; [9],473 ± 24 ×10⁻⁶ cm/s
same,"Papp A→B at 180 min, 100 μg/mL",[2]; [9],468 ± 14 ×10⁻⁶ cm/s
same,"Papp A→B at 180 min, 150 μg/mL",[2]; [9],618 ± 28 ×10⁻⁶ cm/s
same,"Papp B→A at 180 min, 50 μg/mL",[2]; [10],568 ± 24 ×10⁻⁶ cm/s
same,"Papp B→A at 180 min, 100 μg/mL",[2]; [10],614 ± 8 ×10⁻⁶ cm/s
same,"Papp B→A at 180 min, 150 μg/mL",[2]; [10],808 ± 15 ×10⁻⁶ cm/s
same,"efflux ratio at 180 min, 50 μg/mL","[2]; Caco-2, pH 6, RB→A/A→B",1.2 ± 0.11
same,efflux ratio at 180 min,"[2]; Caco-2, pH 6, RB→A/A→B value",~1
same,"Papp A→B at 180 min, 50 μg/mL",[2]; [11],86 ± 12 ×10⁻⁶ cm/s
same,"Papp A→B at 180 min, 100 μg/mL",[2]; [11],92 ± 17 ×10⁻⁶ cm/s
same,"Papp A→B at 180 min, 150 μg/mL",[2]; [11],96 ± 14 ×10⁻⁶ cm/s
same,"Papp B→A at 180 min, 50 μg/mL",[2]; [12],83 ± 600 ×10⁻⁶ cm/s
same,"Papp B→A at 180 min, 100 μg/mL",[2]; [12],88 ± 11 ×10⁻⁶ cm/s
same,"Papp B→A at 180 min, 150 μg/mL",[2]; [12],93 ± 18 ×10⁻⁶ cm/s
same,"efflux ratio at 180 min, 50 μg/mL","[2]; Caco-2, pH 8, RB→A/A→B",1.03 ± 0.01
same,"efflux ratio at 180 min, 100 μg/mL","[2]; Caco-2, pH 8, RB→A/A→B",1.04 ± 0.03
same,"Papp A→B at 180 min, 50 μg/mL",[2]; [13],45 ± 4 ×10⁻⁶ cm/s
same,"Papp A→B at 180 min, 100 μg/mL",[2]; [13],56 ± 24 ×10⁻⁶ cm/s
same,"Papp A→B at 180 min, 150 μg/mL",[2]; [13],66 ± 26 ×10⁻⁶ cm/s
same,"Papp B→A at 180 min, 50 μg/mL",[2]; [14],42 ± 15 ×10⁻⁶ cm/s
same,"Papp B→A at 180 min, 100 μg/mL",[2]; [14],54 ± 18 ×10⁻⁶ cm/s
same,"Papp B→A at 180 min, 150 μg/mL",[2]; [14],62 ± 21 ×10⁻⁶ cm/s
same,"efflux ratio at 180 min, 50 μg/mL","[2]; Caco-2, pH 9, RB→A/A→B",1.07 ± 0.06
same,P-gp substrate status,[3]; Caco-2,substrates of P-gp
same,absorption category from Papp,[3]; Caco-2,good absorption
same,transport mechanism,[3]; Caco-2,passive diffusion
same,Papp,"[3]; human, Caco-2, 180 min",greater than 10^−6
same,"RB→A/A→B ratios, range over all conditions","[3]; human, Caco-2, 180 min",0.75-1.31
same,RB→A/A→B,"[3]; human, Caco-2, 180 min, 100 μg/mL, pH 6",1.31 ± 0.05
same,RB→A/A→B,"[3]; human, Caco-2, 180 min, 100 μg/mL, pH 9",1.03 ± 0.04
same,RB→A/A→B,"[3]; human, Caco-2, 180 min, 150 μg/mL, pH 6",1.21 ± 0.15
same,RB→A/A→B,"[3]; human, Caco-2, 180 min, 150 μg/mL, pH 8",1.03 ± 0.05
same,RB→A/A→B,"[3]; human, Caco-2, 180 min, 150 μg/mL, pH 9",1.06 ± 0.05
"O=C([O-])c1ccccc1-c1c2ccc(=O)cc-2oc2cc([O-])ccc12.[Na+].[Na+] [fluorescein sodium, Fluorescein sodium]",Papp of fluorescein sodium,[4],4.06 ± 0.17 × 10^−7 cm/s
